Where a name gives a salt, the structure may show the parent alone. Read-outs that look alike come from different tables or passages of the source. Where a SMILES comes first, the peptide text is derived from it. [ ]: non-standard residue; d: D form. d(aIle) = CC[C@H](C)[C@@H](N)C(=O)O; Hica(2S) = CC(C)C[C@H](O)C(=O)O; NMeL = CN[C@@H](CC(C)C)C(=O)O; Hiv = CC(C)[C@H](O)C(=O)O
Assays:
[1] = test system: P. falciparum 3D7 parasites; assay: P. falciparum growth inhibition assay, 1-cycle (72 h treatment), SYBR DNA staining (library screen at 2 μg/mL and dose-response); type: cell-based, Plasmodium falciparum; details: for activity at 2 µg/mL: Plasmodium falciparum
[2] = test system: T. gondii RH strain (RH-Tub-eYFP) tachyzoites; assay: microbe, parasite or virus in culture; type: cell-based, Toxoplasma gondii; details: 72 h; for percent parasite growth at 2 µg/mL: Toxoplasma gondii
[3] = test system: P. falciparum 3D7 parasites; assay: P. falciparum growth inhibition assay, 2-cycle (120 h treatment), delayed-death screen and dose-response; type: cell-based, Plasmodium falciparum; details: for activity at 2 µg/mL: Plasmodium falciparum
[4] = P. falciparum, 72 h, screen at 2 μg/mL, replicate 1
[5] = P. falciparum, 72 h, screen at 2 μg/mL, replicate 2
[6] = T. gondii, screen at 2 μg/mL, replicate 1
[7] = T. gondii, screen at 2 μg/mL, replicate 2
[8] = P. falciparum, 120 h, screen at 2 μg/mL, replicate 1
[9] = P. falciparum, 120 h, screen at 2 μg/mL, replicate 2
[10] = P. falciparum, 72 h, parasite screen 2 μg/mL, % growth, replicate 1
[11] = P. falciparum, 72 h, parasite screen 2 μg/mL, % growth, replicate 2
[12] = T. gondii, parasite screen 2 μg/mL, % growth, replicate 1
[13] = T. gondii, parasite screen 2 μg/mL, % growth, replicate 2
[14] = P. falciparum, 120 h, parasite screen 2 μg/mL, % growth, replicate 1
[15] = P. falciparum, 120 h, parasite screen 2 μg/mL, % growth, replicate 2

In the case of `O=C(O)c1c(=O)cccc2ssc12` [Tropodithietic acid], the Pf_72h_%Growth_Rep1 [1, 4] is reported as 3.58%, the Pf_72h_%Growth_Rep2 [1, 5] is reported as -3.15% and the Tg_72h_%Growth_Rep1 [2, 6] is reported as 1.16%. The Tg_72h_%Growth_Rep2 [2, 7] was 1.78%, the Pf_120h_%Growth_Rep1 [3, 8] was 21.29% and the Pf_120h_%Growth_Rep2 [3, 9] was 16.13%.

`CC[C@H](C)[C@H]1NC(=O)[C@H](C(C)C)OC(=O)[C@H](CC(C)C)N(C)C(=O)[C@H](C(C)C)NC(=O)[C@H](CC(C)C)OC(=O)[C@@H](CC(C)C)NC1=O` [Sporidesmolide V] (cyclo([Hica(2S)]V[NMeL][Hiv][d(aIle)][dL])) showed a Pf_72h_%Growth_Rep1 [1, 10] of 8.13%, a Pf_72h_%Growth_Rep2 [1, 11] of 0.54% and a Tg_72h_%Growth_Rep1 [2, 12] of 84.27%. The Tg_72h_%Growth_Rep2 [2, 13] was 95.04%, the Pf_120h_%Growth_Rep1 [3, 14] was 158.27% and the Pf_120h_%Growth_Rep2 [3, 15] was 82.66%.

For `CCCCCCCCCCCCCCCC(=O)C1=C(O)C(CO)OC1=O` (stereo not drawn) [TAN 1364B], the Pf_72h_%Growth_Rep1 [1, 10] was 72.25%, the Pf_72h_%Growth_Rep2 [1, 11] was 85.83% and the Tg_72h_%Growth_Rep1 [2, 12] was 101.38%. For the same compound, the Tg_72h_%Growth_Rep2 [2, 13] was 92.62%, the Pf_120h_%Growth_Rep1 [3, 14] was 149.02% and the Pf_120h_%Growth_Rep2 [3, 15] was 76.93%.

With `Cc1cc(O)cc(=O)o1` [BIA-H1736] the Pf_72h_%Growth_Rep1 ([1]; P. falciparum 3D7, 72 h, library screen at 2 μg/mL, % growth, replicate 1) was 86.06%, the Pf_72h_%Growth_Rep2 ([1]; P. falciparum 3D7, 72 h, library screen at 2 μg/mL, % growth, replicate 2) was 85.31% and the Tg_72h_%Growth_Rep1 ([2]; T. gondii RH, library screen at 2 μg/mL, % growth, replicate 1) was 113.92%. The Tg_72h_%Growth_Rep2 ([2]; T. gondii RH, library screen at 2 μg/mL, % growth, replicate 2) was 93.67%, the Pf_120h_%Growth_Rep1 ([3]; P. falciparum 3D7, 120 h, library screen at 2 μg/mL, % growth, replicate 1) was 102.52% and the Pf_120h_%Growth_Rep2 ([3]; P. falciparum 3D7, 120 h, library screen at 2 μg/mL, % growth, replicate 2) was 94.50%.

For `CC(=O)Nc1c2sscc-2n(C)c1=O` [Thiolutin], the activity at 2 µg/mL ([1]; 3D7, P. falciparum, 72 h, screen at 2 μg/mL, replicate 1, read-out: Pf_72h_%Growth_Rep1) was 4.59%, the activity at 2 µg/mL ([1]; 3D7, P. falciparum, 72 h, screen at 2 μg/mL, replicate 2, read-out: Pf_72h_%Growth_Rep2) was 0.05% and the percent parasite growth at 2 µg/mL ([2]; T. gondii, screen at 2 μg/mL, replicate 1, read-out: Tg_72h_%Growth_Rep1) was 2.01%. For the same compound, the percent parasite growth at 2 µg/mL ([2]; T. gondii, screen at 2 μg/mL, replicate 2, read-out: Tg_72h_%Growth_Rep2) was 1.94%, the activity at 2 µg/mL ([3]; 3D7, P. falciparum, 120 h, screen at 2 μg/mL, replicate 1, read-out: Pf_120h_%Growth_Rep1) was 42.4% and the activity at 2 µg/mL ([3]; 3D7, P. falciparum, 120 h, screen at 2 μg/mL, replicate 2, read-out: Pf_120h_%Growth_Rep2) was 15.5%.

`CN[C@H](CC(C)C)C(=O)N[C@H]1C(=O)N[C@@H](CC(N)=O)C(=O)N[C@H]2C(=O)N[C@H]3C(=O)N[C@H](C(=O)N[C@H](C(=O)O)c4cc(O)cc(O)c4-c4cc3ccc4O)[C@H](O)c3ccc(c(Cl)c3)Oc3cc2cc(c3O[C@@H]2O[C@H](CO)[C@@H](O)[C@H](O)[C@H]2O[C@H]2C[C@](C)(N)[C@H](O)[C@H](C)O2)Oc2ccc(cc2Cl)[C@H]1O` [Vancomycin hydrochloride] showed an activity at 2 µg/mL ([1]; 3D7, 72 h, read-out: Pf_72h_%Growth_Rep1) of 88%, an activity at 2 µg/mL ([1]; 3D7, 72 h, read-out: Pf_72h_%Growth_Rep2) of 120% and a percent parasite growth at 2 µg/mL ([2]; read-out: Tg_72h_%Growth_Rep1) of 108%. The percent parasite growth at 2 µg/mL ([2]; read-out: Tg_72h_%Growth_Rep2) was 80.9%, the activity at 2 µg/mL ([3]; 3D7, 120 h, read-out: Pf_120h_%Growth_Rep1) was 110% and the activity at 2 µg/mL ([3]; 3D7, 120 h, read-out: Pf_120h_%Growth_Rep2) was 98.5%.

`COc1ccc(Br)c(C)c1C(=O)O[C@@H]1C[C@H](O[C@@H]2C(C)O[C@@H](O[C@H]3CCC[C@@H]4[C@@H]3C=C[C@H]3CCCC/C=C/[C@@H]5C=C(C(=O)O)[C@H](C)C[C@]56OC(=O)C(=C6O)OC(=O)[C@@]43C)C[C@H]2O)O[C@H](C)[C@H]1O` (stereo partly drawn) [Bromothricin] gave a Pf_72h_%Growth_Rep1 [1, 4] of 90.13%, a Pf_72h_%Growth_Rep2 [1, 5] of 84.25% and a Tg_72h_%Growth_Rep1 [2, 6] of 83.92%. For the same compound, the Tg_72h_%Growth_Rep2 [2, 7] was 93.14%, the Pf_120h_%Growth_Rep1 [3, 8] was 159.83% and the Pf_120h_%Growth_Rep2 [3, 9] was 97.51%.

From article PMC12396409, “Screening and hit evaluation of a microbial metabolite library against the pathogenic Plasmodium falciparum and Toxoplasma gondii parasites” (International Journal for Parasitology: Drugs and Drug …, 2025)
